US20100159528A1, “POLYMERASE STABILIZATION” (GE HEALTHCARE BIO-SCIENCE CORP., priority 2007, published 2010)

Experiments:
Tba DNA polymerase = assay: PCR assay for detergents screening: amplification of a 1 kb λDNA fragment with Tba purified and stored without detergents; type: biochemical, Thermococcus barossii; conditions: for % Activity relative to TWEEN ® 20: PCR yield of 1 kb λDNA fragment, Agilent Bioanalyzer; for PCR yield higher than the positive control (TWEEN® 20): PCR reactions containing the detergent; for stabilization and activation of DNA polymerase (in words): detergent added into PCR reaction mix at 0.01% and 0.1% (FIG. 2)
Method: In this experiment, two lots of DNA polymerase that were purified and stored in buffers with/without detergents were tested. Each of the tested DNA polymerase was first diluted into 20 folds in buffers with and without of TWEEN® 20, respectively, prior to PCR and then equal units of enzyme was added into PCR mix. PCRs were performed in 25 μl volume in with 200 nM of forward and reverse primers, 200 μM dNTP, 1.0 unit of Tba and 1.0 ng template DNA. 1 kb human genomic DNA and 1 kb lambda DNA fragments were amplified. Reaction buffer contains 10 mM Tris-HCl, pH 9.0, 50 mM KCl, and 1.5 mM MgCl2. The PCR reaction was started by 2 minutes initial heating at 95° C., followed by 35 cycles with 95° C. for 30 s, 55° C. 30 s, and 72° C. for 60 s, and then final extension at 72° C. for 5 min. The PCR products were analyzed with Agilent Bioanalyzer.
The PCR assay was used for the detergents screening. The tested detergents were first dissolved in molecular biology grade water and neutralized to pH7 with a sodium hydroxide solution to make final concentration of 5% (W/V) stock solutions. The 5% detergent solutions were then used for the screening by either adding them into enzyme dilution buffer or spiked into PCR mix. The amplification of a 1 kb λDNA fragment was used test the effect of each detergent on the Tba stability and activity. The PCR conditions are the same as described earlier. Tba that was purified and stored in the absence of detergents was used for the tests. The tested detergents were spiked into the PCR reactions at a final concentration of 0.01%, 0.05%, and 0.1%, respectively. The PCR yields were quantitated by Agilent Bioanalyzer.

DNA polymerase [1] = tested on: DNA polymerase
Method: An enzyme will have a maximal activity rate, which is preferably measured under conditions of saturating substrate concentration and at a selected set of environmental conditions including temperature, pH and salt concentration. For the DNA polymerases described herein, preferred conditions for measuring activity are 25 mM TAPS (tris-hydroxymethyl 25 methylaminopropane sulfonic acid) buffer, pH 9.3 (measured at 25° C.), 50 mM KCl, 2 mM MgCl2, 1 mM 2- mercaptoethanol, 0.2 mM each of dGTP, dCTP, dTTP, 0.2 mM [α-33P]-dATP (0.05-0.1 Ci/mmol) and 0.4 mg/mL activated salmon sperm DNA. The reaction is allowed to proceed at 74° C. Exemplary methods for measuring the DNA polymerase activity of an enzyme under such 30 conditions are provided hereinafter.
(§1) The stabilization functions of these two detergents are tested for δJSER DNA polymerase as well. […] In addition, the stabilization effects of these two detergents on DNA polymerase were also tested in the activity assay and thermostability assay.

δJSER DNA polymerase = assay: Stabilization/activation test for δJSER DNA polymerase; type: biochemical, JSER; conditions: compared with the effect on Tba
Method: as §1

DNA polymerase [2] = conditions: for effect of high detergent concentration on stability and activity: Concentrations above 0.5% (W/V)
Method: For ♦, each detergent is present at the indicated amount.
as §1

[3] = Detergent Conc. 0.01% in PCR reaction
[4] = Detergent Conc. 0.05% in PCR reaction
[5] = Detergent Conc. 0.10% in PCR reaction

Substance	formation of PCR products depending on detergent in the enzyme dilution buffer (Tba DNA polymerase; Tba diluted 20 fold in buffer with/without TWEEN® 20, 1 kb λDNA and human genomic DNA fragments (FIG. 1))	stabilization effect in the activity assay compared with TWEEN® 20 (DNA polymerase [1])	activation of δJSER DNA polymerase (δJSER DNA polymerase)	stabilization effect in the thermostability test compared with TWEEN® 20 (DNA polymerase [2])	DNA polymerase remaining active after heating (DNA polymerase [2]; 95° C., 15 minutes, 1x PCR buffer, compared with NP40 and TWEEN® 20 (FIG. 3))	effect of high detergent concentration on stability and activity (DNA polymerase [2])	% Activity relative to TWEEN ® 20 (Tba DNA polymerase; [3])	% Activity relative to TWEEN ® 20 (Tba DNA polymerase; [4])	% Activity relative to TWEEN ® 20 (Tba DNA polymerase; [5])	PCR yield higher than the positive control (TWEEN® 20) (Tba DNA polymerase)	stabilization and activation of DNA polymerase (in words) (Tba DNA polymerase)
TWEEN® 20 [reference compound]	PCR products were only obtained from the reactions that the enzymes were diluted in a buffer containing the detergent										
polyoxyethylene nonylphenol ether, phosphate [RHODAFAC™ RE-960]		same or better stabilization effects	same activation	same or better stabilization effects	more DNA polymerase remains active	do not improve stability but do not decrease activity	130.7%	165.8%	167.1%	about 30%	work very well in stabilization and activation of DNA polymerase
polyoxyethylene tridecyl ether, phosphate [RHODAFAC™ RS-960]		same or better stabilization effects	same activation	same or better stabilization effects		do not improve stability but do not decrease activity	101.8%	167.9%	178.6%	about 30%	work very well in stabilization and activation of DNA polymerase
